Source: patent US7132504B2, “Hepatitis C virus inhibitors” (Bristol-Myers Squibb Company, priority 2003, dated 2006)

Experiments:
[1] = biological target: T1, HCV NS3/4A protease complex (UniProt P27958, C1454S/C1711G, species not given); assay: Recombinant HCV NS3/4A protease complex FRET peptide assay (strain not stated); assay type: biochemical; details: NS3/4A protease enzyme assay, read-out: Activity Range IC50
T1 construct: fused on or other part: Three-lysine solubilising tail at the C-terminus of NS4A
From the text: The purpose of this in vitro assay was to measure the inhibition of HCV NS3 protease complexes, derived from the BMS strain, H77 strain or J416S strain, as described below, by compounds of the present invention. This assay provides an indication of how effective compounds of the present invention would be in inhibiting HCV proteolytic activity.
Serum from an HCV-infected patient was obtained from Dr. T. Wright, San Francisco Hospital. An engineered full-length cDNA (compliment deoxyribonucleic acid) template of the HCV genome (BMS strain) was constructed from DNA fragments obtained by reverse transcription-PCR (RT-PCR) of serum RNA (ribonucleic acid) and using primers selected on the basis of homology between other genotype 1a strains. From the determination of the entire genome sequence, a genotype 1a was assigned to the HCV isolate according to the classification of Simmonds et al. (See P Simmonds, K A Rose, S Graham, S W Chan, F McOmish, B C Dow, E A Follett, P L Yap and H Marsden, J. Clin. Microbiol., 31(6), 1493–1503 (1993)). […] The infectious clones, H77 (1a genotype) and J4L6S (1b genotype) were obtained from R. Purcell (NIH) and the sequences are published in Genbank (AAB67036, see Yanagi, M., Purcell, R. H., Emerson, S. U. and Bukh, J. Proc. Natl. Acad. Sci. U.S.A. 94(16), 8738–8743 (1997); AF054247, see Yanagi, M., St Claire, M., Shapiro, M., Emerson, S. U., Purcell, R. H. and Bukh, J, Virology 244 (1), 161–172. (1998)).
The H77 and J4L6S strains were used for production of recombinant NS3/4A protease complexes. DNA encoding the recombinant HCV NS3/4A protease complex (amino acids 1027 to 1711) for these strains were manipulated as described by P. Gallinari et al. (see Gallinari P, Paolini C, Brennan D, Nardi C, Steinkuhler C, De Francesco R. Biochemistry. 38(17):5620–32, (1999)). Briefly, a three-lysine solubilizing tail was added at the 3′-end of the NS4A coding region. The cysteine in the P1 position of the NS4A–NS4B cleavage site (amino acid 1711) was changed to a glycine to avoid the proteolytic cleavage of the lysine tag. Furthermore, a cysteine to serine mutation was introduced by PCR at amino acid position 1454 to prevent the autolytic cleavage in the NS3 helicase domain. The variant DNA fragment was cloned in the pET21b bacterial expression vector (Novagen) and the NS3/4A complex was expressed in Escherichia. coli strain BL21 (DE3) (Invitrogen) following the protocol described by P. Gallinari et al. (see Gallinari P, Brennan D, Nardi C, Brunetti M, Tomei L, Steinkuhler C, De Francesco R., J Virol. 72(8):6758–69 (1998)) with modifications. Briefly, the NS3/4A protease complex expression was induced with 0.5 millimolar (mM) Isopropyl β-D-1-thiogalactopyranoside (IPTG) for 22 hours (h) at 20° C. A typical fermentation (1 Liter (L)) yielded approximately 10 grams (g) of wet cell paste. The cells were resuspended in lysis buffer (10 mL/g) consisting of 25 mM N-(2-Hydroxyethyl)Piperazine-N′-(2-Ethane Sulfonic acid) (HEPES), pH 7.5, 20% glycerol, 500 mM Sodium Chloride (NaCl), 0.5% Triton X-100, 1 microgram/milliliter (“μg/mL”) lysozyme, 5 mM Magnesium Chloride (MgCl2), 1 μg/ml Dnasel, 5 mM β-Mercaptoethanol (βME), Protease inhibitor—Ethylenediamine Tetraacetic acid (EDTA) free (Roche), homogenized and incubated for 20 minutes (min) at 4° C. The homogenate was sonicated and clarified by ultra-centrifugation at 235000 g for 1 h at 4° C. Imidazole was added to the supernatant to a final concentration of 15 mM and the pH adjusted to 8.0. The crude protein extract was loaded on a Nickel—Nitrilotriacetic acid (Ni-NTA) column pre-equilibrated with buffer B (25 mM HEPES, pH 8.0, 20% glycerol, 500 mM NaCl, 0.5% Triton X-100, 15 mM imidazole, 5 mM βME). The sample was loaded at a flow rate of 1 mL/min. The column was washed with 15 column volumes of buffer C (same as buffer B except with 0.2% Triton X-100). The protein was eluted with 5 column volumes of buffer D (same as buffer C except with 200 mM Imidazole). […]

[2] = system: HCV replicon in Huh7 cells; assay: HCV replicon cell-based assay (FRET); design: species or system HCV strain 1b; details: Hepatitis C virus, Huh-7, 96 h, 4 days, read-out: Activity Range EC50
From the text: An HCV replicon whole cell system was established as described by Lohmann V, Korner F, Koch J, Herian U, Theilmann L, Bartenschlager R., Science 285(5424):110–3 (1999). This system enabled us to evaluate the effects of our HCV Protease compounds on HCV RNA replication. Briefly, using the HCV strain 1b sequence described in the Lohmann paper (Assession number:AJ238799), an HCV cDNA was generated encoding the 5′ internal ribosome entry site (IRES), the neomycin resistance gene, the EMCV (encephalomyocarditis viurs)-IRES and the HCV nonstructural proteins, NS3–NS5B, and 3′ non-translated region (NTR). In vitro transcripts of the cDNA were transfected into the human hepatoma cell line, Huh7. […] Resulting cell lines were characterized for positive and negative strand RNA production and protein production over time.
Huh7 cells, constitutively expressing the HCV replicon, were grown in Dulbecco's Modified Eagle Media (DMEM) containing 10% Fetal calf serum (FCS) and 1 mg/ml G418 (Gibco-BRL). Cells were seeded the night before (1.5×10^4 cells/well) in 96-well tissue-culture sterile plates. Compound and no compound controls were prepared in DMEM containing 4% FCS, 1:100 Penicillin/Streptomysin, 1:100 L-glutamine and 5% DMSO in the dilution plate (0.5% DMSO final concentration in the assay). Compound/DMSO mixes were added to the cells and incubated for 4 days at 37° C. After 4 days, plates were rinsed thoroughly with Phosphate-Buffered Saline (PBS) (3 times 150 μl). The cells were lysed with 25 μl of a lysis assay reagent containing the FRET peptide (RET S1, as described for the in vitro enzyme assay). The lysis assay reagent was made from 5× cell Luciferase cell culture lysis reagent (Promega #E153A) diluted to 1× with distilled water, NaCl added to 150 mM final, the FRET peptide diluted to 10 μM final from a 2 mM stock in 100% DMSO. The plate was then placed into the Cytofluor 4000 instrument which had been set to 340 nm excitation/490 nm emission, automatic mode for 21 cycles and the plate read in a kinetic mode. EC50 determinations were carried out as described for the IC50 determinations. […]
The percentage inhibition was calculated using the formula below: […]
The values were graphed and analyzed using XLFit to obtain the EC50 value.

SMILES	IC50 [1] [nM]	EC50 [2] [nM]
C=CC1CC1(NC(=O)[C@@H]1C[C@@H](Oc2cc(-c3ccccc3)nc3cc(OC)ccc23)CN1C(=O)[C@@H](NC(=O)OC)C(C)(C)C)C(=O)NS(=O)(=O)N1CCCC1 (mixture of isomers) [Compound 8]	< 150	150 to 1500
C=CC1C[C@]1(NC(=O)[C@@H]1C[C@@H](Oc2cc(-c3ccccc3)nc3cc(OC)ccc23)CN1C(=O)[C@@H](NC(=O)OC)C(C)(C)C)C(=O)NS(=O)(=O)N(C)CC (stereo partly drawn) [Compound 1]	< 150	< 150
C=CC1C[C@]1(NC(=O)[C@@H]1C[C@@H](Oc2cc(-c3ccccc3)nc3cc(OC)ccc23)CN1C(=O)[C@@H](NC(=O)OC)C(C)(C)C)C(=O)NS(=O)(=O)N(C)OC (stereo partly drawn) [Compound 2]	< 150	150 to 1500
C=CC1C[C@]1(NC(=O)[C@@H]1C[C@@H](Oc2cc(-c3ccccc3)nc3cc(OC)ccc23)CN1C(=O)[C@@H](NC(=O)OC)C(C)(C)C)C(=O)NS(=O)(=O)N(C)C (stereo partly drawn) [Compound 3]	< 150	< 150
C=CC1C[C@]1(NC(=O)[C@@H]1C[C@@H](Oc2cc(-c3ccccc3)nc3cc(OC)ccc23)CN1C(=O)[C@@H](NC(=O)OC)C(C)(C)C)C(=O)NS(=O)(=O)N1CCC1 (stereo partly drawn) [Compound 4]	< 150	150 to 1500
C=CC1C[C@]1(NC(=O)[C@@H]1C[C@@H](Oc2cc(-c3ccccc3)nc3cc(OC)ccc23)CN1C(=O)[C@@H](NC(=O)OC)C(C)(C)C)C(=O)NS(=O)(=O)N(C)c1ccccc1 (stereo partly drawn) [Compound 5]	< 150	< 150
C=CC1C[C@]1(NC(=O)[C@@H]1C[C@@H](Oc2cc(-c3ccccc3)nc3cc(OC)ccc23)CN1C(=O)[C@@H](NC(=O)OC)C(C)(C)C)C(=O)NS(=O)(=O)N1CCCC1 (stereo partly drawn) [Compound 6]	< 150	150 to 1500
C=CC1C[C@]1(NC(=O)[C@@H]1C[C@@H](Oc2cc(-c3ccccc3)nc3cc(OC)ccc23)CN1C(=O)[C@@H](NC(=O)OC)C(C)(C)C)C(=O)NS(=O)(=O)N(C)C(C)C (stereo partly drawn) [Compound 7]	< 150	150 to 1500
C=CC1C[C@]1(NC(=O)[C@@H]1C[C@@H](Oc2cc(-c3ccccc3)nc3cc(OC)ccc23)CN1C(=O)[C@@H](NC(=O)OC)C(C)(C)C)C(=O)NS(=O)(=O)N1CCCCC1 (stereo partly drawn) [Compound 10]	< 150	150 to 1500
C=CC1C[C@]1(NC(=O)[C@@H]1C[C@@H](Oc2cc(-c3ccccc3)nc3cc(OC)ccc23)CN1C(=O)[C@@H](NC(=O)OC)C(C)(C)C)C(=O)NS(=O)(=O)N1CCCCO1 (stereo partly drawn) [Compound 11]	150 to 1500	> 1500
C=CC1C[C@]1(NC(=O)[C@@H]1C[C@@H](Oc2cc(-c3ccccc3)nc3cc(OC)ccc23)CN1C(=O)[C@@H](NC(=O)OC)C(C)(C)C)C(=O)NS(=O)(=O)N1CCOCC1 (stereo partly drawn) [Compound 12]	150 to 1500	–
C=CC1C[C@]1(NC(=O)[C@@H]1C[C@@H](Oc2cc(-c3ccccc3)nc3cc(OC)ccc23)CN1C(=O)[C@@H](NC(=O)OC)C(C)(C)C)C(=O)NS(=O)(=O)N1CCN(C)CC1 (stereo partly drawn) [Compound 13]	150 to 1500	> 1500
C=CC1C[C@]1(NC(=O)[C@@H]1C[C@@H](Oc2cc(-c3ccccc3)nc3cc(OC)ccc23)CN1C(=O)[C@@H](NC(=O)OC(C)(C)C)C(C)(C)C)C(=O)NS(=O)(=O)N(C)CC (stereo partly drawn) [Compound 14]	< 150	< 150
C=CC1C[C@]1(NC(=O)[C@@H]1C[C@@H](Oc2cc(-c3ccccc3)nc3cc(OC)ccc23)CN1C(=O)[C@@H](NC(=O)OC(C)(C)C)C(C)(C)C)C(=O)NS(=O)(=O)N(C)C (stereo partly drawn) [Compound 15]	< 150	< 150
C=CC1C[C@]1(NC(=O)[C@@H]1C[C@@H](Oc2cc(-c3ccccc3)nc3cc(OC)ccc23)CN1C(=O)[C@@H](NC(=O)OC(C)(C)C)C(C)(C)C)C(=O)NS(=O)(=O)N(C)c1ccccc1 (stereo partly drawn) [Compound 16]	< 150	< 150
C=CC1C[C@]1(NC(=O)[C@@H]1C[C@@H](Oc2nccc3cc(OC)ccc23)CN1C(=O)[C@@H](NC(=O)OC(C)(C)C)C(C)(C)C)C(=O)NS(=O)(=O)N(C)C (stereo partly drawn) [Compound 17]	< 150	150 to 1500
C=CC1C[C@]1(NC(=O)[C@@H]1C[C@@H](Oc2nccc3cc(OC)ccc23)CN1C(=O)[C@@H](NC(=O)OC(C)(C)C)C(C)(C)C)C(=O)NS(=O)(=O)N1CCCC1 (stereo partly drawn) [Compound 18]	< 150	< 150
C=CC1C[C@]1(NC(=O)[C@@H]1C[C@@H](Oc2nccc3cc(OC)ccc23)CN1C(=O)[C@@H](NC(=O)OC(C)(C)C)C(C)(C)C)C(=O)NS(=O)(=O)N(C)CC (stereo partly drawn) [Compound 19]	< 150	< 150
C=CC1C[C@]1(NC(=O)[C@@H]1C[C@@H](Oc2nccc3cc(OC)ccc23)CN1C(=O)[C@@H](NC(=O)OC(C)(C)C)C(C)(C)C)C(=O)NS(=O)(=O)N(C)c1ccccc1 (stereo partly drawn) [Compound 20]	< 150	< 150
C=CC1C[C@]1(NC(=O)[C@@H]1C[C@@H](Oc2nccc3cc(OC)ccc23)CN1C(=O)[C@@H](NC(=O)OC(C)(C)C)C(C)(C)C)C(=O)NS(=O)(=O)N(C)C(C)C (stereo partly drawn) [Compound 21]	150 to 1500	150 to 1500
C=CC1C[C@]1(NC(=O)[C@@H]1C[C@@H](Oc2nccc3ccccc23)CN1C(=O)[C@@H](NC(=O)OC(C)(C)C)C(C)(C)C)C(=O)NS(=O)(=O)N(C)C(C)C (stereo partly drawn) [Compound 22]	150 to 1500	–
C=CC1C[C@]1(NC(=O)[C@@H]1C[C@@H](Oc2nc(-c3ccncc3)cc3ccccc23)CN1C(=O)[C@@H](NC(=O)OC(C)(C)C)C(C)(C)C)C(=O)NS(=O)(=O)N(C)C (stereo partly drawn) [Compound 23]	< 150	< 150
